In the NIST ThermoML archive (doi:10.1021/je700287u):
± gives the expanded uncertainty stated by the source.

Details: Liquid

CN(CCO)CCO [N-methyldiethanolamine]
Details	mass density [kg/m3]
313.09 K, 1007 kPa	1025.3 ± 0.6
313.09 K, 1989 kPa	1025.8 ± 0.6
313.09 K, 3027 kPa	1026.4 ± 0.6
313.09 K, 4003 kPa	1026.9 ± 0.6
313.09 K, 5004 kPa	1027.3 ± 0.6
313.09 K, 6004 kPa	1027.8 ± 0.6
313.09 K, 6996 kPa	1028.3 ± 0.6
313.09 K, 8006 kPa	1028.8 ± 0.6
313.09 K, 9066 kPa	1029.4 ± 0.6
313.09 K, 10021 kPa	1029.8 ± 0.6
313.09 K, 11008 kPa	1030.3 ± 0.6
313.09 K, 11995 kPa	1030.8 ± 0.6
313.09 K, 13024 kPa	1031.3 ± 0.7
313.09 K, 13984 kPa	1031.7 ± 0.7
313.09 K, 14994 kPa	1032.2 ± 0.7
313.09 K, 15992 kPa	1032.7 ± 0.7
313.09 K, 16977 kPa	1033.1 ± 0.7
313.09 K, 17994 kPa	1033.6 ± 0.7
313.09 K, 19000 kPa	1034 ± 0.7
313.09 K, 19985 kPa	1034.5 ± 0.7
323.01 K, 1003 kPa	1017.6 ± 0.6
323.01 K, 2020 kPa	1018.2 ± 0.6
323.01 K, 3006 kPa	1018.7 ± 0.6
323.01 K, 4031 kPa	1019.2 ± 0.6
323.01 K, 5002 kPa	1019.7 ± 0.6
323.01 K, 6020 kPa	1020.2 ± 0.6
323.01 K, 7003 kPa	1020.7 ± 0.6
323.01 K, 8000 kPa	1021.2 ± 0.6
323.01 K, 9006 kPa	1021.7 ± 0.6
323.01 K, 9991 kPa	1022.2 ± 0.6
323.01 K, 11005 kPa	1022.7 ± 0.6
323.01 K, 12000 kPa	1023.2 ± 0.6
323.01 K, 13010 kPa	1023.7 ± 0.6
323.01 K, 14000 kPa	1024.2 ± 0.6
323.01 K, 14987 kPa	1024.7 ± 0.6
323.01 K, 15987 kPa	1025.2 ± 0.6
323.01 K, 17012 kPa	1025.6 ± 0.6
323.01 K, 17991 kPa	1026.1 ± 0.7
323.01 K, 18995 kPa	1026.6 ± 0.7
323.01 K, 20012 kPa	1027.1 ± 0.7
332.95 K, 1045 kPa	1009.9 ± 0.6
332.95 K, 2032 kPa	1010.5 ± 0.6
332.95 K, 2995 kPa	1011 ± 0.6
332.95 K, 3991 kPa	1011.6 ± 0.6
332.95 K, 4983 kPa	1012.1 ± 0.6
332.95 K, 6016 kPa	1012.6 ± 0.6
332.95 K, 6998 kPa	1013.2 ± 0.6
332.95 K, 8009 kPa	1013.7 ± 0.6
332.95 K, 8993 kPa	1014.2 ± 0.6
332.95 K, 9991 kPa	1014.7 ± 0.6
332.95 K, 10985 kPa	1015.3 ± 0.6
332.95 K, 12014 kPa	1015.8 ± 0.6
332.95 K, 13079 kPa	1016.3 ± 0.6
332.95 K, 13992 kPa	1016.8 ± 0.6
332.95 K, 14999 kPa	1017.3 ± 0.6
332.95 K, 15997 kPa	1017.8 ± 0.6
332.95 K, 16989 kPa	1018.3 ± 0.6
332.95 K, 17997 kPa	1018.8 ± 0.6
332.95 K, 19011 kPa	1019.3 ± 0.6
332.95 K, 19963 kPa	1019.7 ± 0.6
342.78 K, 1004 kPa	1002 ± 0.5
342.78 K, 1998 kPa	1002.6 ± 0.5
342.78 K, 3050 kPa	1003.2 ± 0.5
342.78 K, 4015 kPa	1003.7 ± 0.5
342.78 K, 4998 kPa	1004.3 ± 0.5
342.78 K, 6020 kPa	1004.9 ± 0.5
342.78 K, 7011 kPa	1005.4 ± 0.6
342.78 K, 8034 kPa	1006 ± 0.6
342.78 K, 9001 kPa	1006.5 ± 0.6
342.78 K, 10000 kPa	1007.1 ± 0.6
342.78 K, 11000 kPa	1007.6 ± 0.6
342.78 K, 12012 kPa	1008.2 ± 0.6
342.78 K, 12947 kPa	1008.7 ± 0.6
342.78 K, 13991 kPa	1009.2 ± 0.6
342.78 K, 15001 kPa	1009.8 ± 0.6
342.78 K, 15987 kPa	1010.3 ± 0.6
342.78 K, 16998 kPa	1010.8 ± 0.6
342.78 K, 18005 kPa	1011.3 ± 0.6
342.78 K, 18981 kPa	1011.9 ± 0.6
342.78 K, 19980 kPa	1012.4 ± 0.6
352.68 K, 1013 kPa	994.4 ± 0.5
352.68 K, 2013 kPa	995 ± 0.5
352.68 K, 3004 kPa	995.6 ± 0.5
352.68 K, 3999 kPa	996.1 ± 0.5
352.68 K, 5003 kPa	996.8 ± 0.5
352.68 K, 6019 kPa	997.3 ± 0.5
352.68 K, 7005 kPa	997.8 ± 0.5
352.68 K, 8001 kPa	998.4 ± 0.5
352.68 K, 8984 kPa	999 ± 0.5
352.68 K, 9981 kPa	999.5 ± 0.5
352.68 K, 11029 kPa	1000.2 ± 0.5
352.68 K, 11980 kPa	1000.7 ± 0.5
352.68 K, 13051 kPa	1001.3 ± 0.5
352.68 K, 14000 kPa	1001.8 ± 0.5
352.68 K, 14988 kPa	1002.4 ± 0.5
352.68 K, 16018 kPa	1002.9 ± 0.5
352.68 K, 16978 kPa	1003.4 ± 0.6
352.68 K, 17977 kPa	1004 ± 0.6
352.68 K, 19003 kPa	1004.5 ± 0.6
352.68 K, 19990 kPa	1005.1 ± 0.6
362.52 K, 1005 kPa	986.7 ± 0.6
362.52 K, 2045 kPa	987.3 ± 0.6
362.52 K, 2982 kPa	987.8 ± 0.6
362.52 K, 4026 kPa	988.4 ± 0.6
362.52 K, 5007 kPa	988.9 ± 0.6
362.52 K, 6014 kPa	989.5 ± 0.6
362.52 K, 7015 kPa	990.2 ± 0.6
362.52 K, 7998 kPa	990.8 ± 0.6
362.52 K, 9003 kPa	991.3 ± 0.6
362.52 K, 9986 kPa	991.9 ± 0.6
362.52 K, 10996 kPa	992.5 ± 0.6
362.52 K, 12008 kPa	993.1 ± 0.6
362.52 K, 13004 kPa	993.7 ± 0.6
362.52 K, 13985 kPa	994.2 ± 0.6
362.52 K, 15010 kPa	994.8 ± 0.6
362.52 K, 15983 kPa	995.4 ± 0.6
362.52 K, 17007 kPa	995.7 ± 0.6
362.52 K, 17985 kPa	996.3 ± 0.6
362.52 K, 18994 kPa	996.9 ± 0.5
362.52 K, 19994 kPa	997.4 ± 0.5
